Results: patent US8981053B2, “Molecules specifically binding pancreatic beta cells biomarkers” (Universite de Mons, priority 2011, dated 2015)
Where no end group is shown, it is not given here.

How the values were obtained:
[1] = molecular target: T1, FXYD2-gamma-a regulatory subunit expressed by CAPAN-2 cells (Homo sapiens, UniProt P54710); test: Immunocytochemistry on CAPAN2 and PANC1 cells; assay type: cell-based; conditions: CAPAN2 cells versus PANC1 cells
T1 construct: the FXYD2-gamma-a regulatory subunit expressed by CAPAN-2 cells; endogenous in cells; host or cells: CAPAN-2 cells (PANC1 cells as comparison)
Method: (§1) The specificity of P88, P89, P90 and a polyclonal antibody against the N-terminal sequence of FXYD2-gamma-a protein to the FXYD2-gamma-a regulatory subunit expressed by CAPAN-2 cells was checked by immunocytochemistry and immunofluorescence tests.
Immunocytochemistry tests were performed using the biotinylated peptides. An anti-biotine antibody was used and was recognized by a secondary antibody coupled to the peroxidase. The polyclonal antibody against the N-terminal sequence of FXYD2-gamma-a protein to the FXYD2-gamma-a was detected using a secondary biotinylated antibody that fixes a complex containing streptavidin, biotin and peroxidase. The latter gives a brown color in the presence of 3,3′-diaminobenzidine (DAB).

FXYD2-gamma-a subunit = FXYD2-gamma-a subunit (Homo sapiens, UniProt P54710); test: Dissociation constant (Kd) determination of phage display clone and synthetized peptides; conditions: binding to FXYD2-gamma-a subunit
Description: Commercially available peptide libraries were screened and peptides binding the FXYD2-gamma-a subunit were retained for further analysis. The FXYD2-gamma-a is a regulating subunit of the Na—K-ATPase that contains 66 amino acids, from which 11 are specific to human beta-cells (Flamez D et al. DOI 10.1007/s00125-010-1714-z). Commercially available linear heptapeptide libraries were screened via M 13 phage display methodology. After 4 screening rounds, 42 clones were selected for further characterization: sequencing and dissociation constant (Kd) determination. […] The latter were synthetized either separately (called P89 and P90) or fused via a short sequence of the pill protein (called P88). All three synthetized peptides were further tested. […]

[2] = molecular target: T1, FXYD2-gamma-a regulatory subunit expressed by CAPAN-2 cells; test: Immunofluorescence on CAPAN2 and PANC1 cells with ImageJ semi-quantitative analysis (RRFL); assay type: cell-based
Description: as §1
Each secondary antibody described above was coupled to a fluorophore such as fluorescein which gives a green color at a certain wavelength. DAPI (4′,6-diamidino-2-phenylindole) was also used in order to stain the cell nuclei in blue. This allowed us to compare the localization of the blue and the green coloration. […] Therefore, P88 interacts specifically with CAPAN2 cells and is thus specific to the FXYD2-gamma-a biomarker.
The images obtained by immunofluorescence test were analyzed using ImageJ software in order to semi-quantitatively evaluate the fluorescent labeling. The following equation was used to calculate the relative rate of fluorescent labeling (RRFL): RRFL=(SIsample/Ncells)/(SIblanc/Ncells) Wherein SI is the signal intensity, N is the number of cells and blanc is the negative control sample.
The percentage of RRFL obtained when P88 was used at two different concentrations (5 μM and 10 μM) was determined compared to the RRFL obtained when the polyclonal antibody against the N-terminal sequence of FXYD2-gamma-a was used (FIG. 3 B). The ratio between the RRFL measured in CAPAN2 cells and the RRFL measured in PANC1 cells was also determined (FIG. 3 C). […] The ratio CAPAN2/PANC1 confirmed the labeling specificity of P88 compared to the used polyclonal antibody.

[3] = system: human pancreatic Langerhans islets; test: Immunohistochemistry on human pancreatic histological sections; assay type: cell-based
Method: (§2) A co-localization of peptide P88, insulin and glucagon was performed on human pancreatic histological sections using immunohistochemistry and immunofluorescence tests. Insulin is a hormone produced by the beta cells of Langerhans islets while glucagon is produced by the alpha cells of the same islets.
The marking is the same as the one obtained when the antibody anti-insulin was used (FIG. 4).
In other immunohistochemistry tests, the anti-FXYD2-gamma-a polyclonal antibody was used. […] Therefore, P88 is highly specific to the pancreatic beta cells FXYD2-gamma-a biomarker.

[4] = system: human pancreatic beta cells; test: Immunofluorescence co-localization on human pancreatic histological sections; assay type: cell-based
Method: as §2
Immunofluorescence tests were performed on human pancreatic histological sections such as P88 was detected together with insulin or glucagon. In another test, insulin was detected together with the polyclonal antibody against the N-terminal sequence of FXYD2-gamma-a. Insulin (specific of beta cells) was detected with a primary anti-insulin antibody which was detected using a secondary antibody coupled to Texas Red. Glucagon was detected with a primary anti-glucagon antibody which was also detected using a secondary antibody coupled to Texas Red. The latter gives red color to the antigenic sites. Biotinylated P88 was detected using a primary antibody anti-biotin and a secondary antibody coupled to fluorescein. The polyclonal antibody against the N-terminal sequence of FXYD2-gamma-a was also detected using a secondary antibody coupled to fluorescein. Antigenic sites marked by fluorescein are visualized in green color. DAPI was also used in order to stain the cells nuclei in blue. Pictures obtained with each staining (red, green and blue) were superimposed.

CAPAN2 cells [5] = test: MRI of CAPAN2 cells labeled with contrast agents; assay type: cell-based, human; conditions: for MRI labeling of CAPAN2 cells: 2×10^6 to 0.1×10^6 cells per 100 μl; for transverse relaxation rates of labeled CAPAN2 cells compared to USPIO-PEG: independent from the concentration of CAPAN2 cells
Method: (§3) CAPAN2 cells were labeled with USPIO nanoparticles coupled to P88 or with carboxy silane coated iron oxide nanoparticles coupled to P88. USPIO-polyethylene glycol (PEG) were used as negative contrast agent. Labeled cells were visualized by MRI and the concentration of contrast agents bound to the cells was determined by iron dosage.
CAPAN2 cells were used with different concentrations ranging from 2×10^6 cell per 100 μl to 0.1×10^6 cells per 100 μl corresponding respectively to the beta cell concentration in healthy pancreas and in a pancreas with diabetes. […] The labeling was also clearly observed with the lowest CAPAN2 cell concentration.

CAPAN2 cells [6] = test: Iron dosage of CAPAN2 cells labeled with contrast agents; assay type: cell-based, human; conditions: contrast agent 1 mM, 2 mM and 3 mM
Method: as §3
This confirms the specificity of P88 to the pancreatic beta cells biomarker FXYD2-gamma-a and the efficacy of using the P88 coupled to a contrast agent in MRI.

human Langerhans islets = test: MRI of human Langerhans islets labeled with contrast agents; assay type: cell-based; conditions: for transverse relaxation rates of labeled human Langerhans islets compared to USPIO-PEG: independent from concentration and purity of islets
Method: Contrast agents USPIO and carboxy silane coated iron oxide nanoparticles coupled to the peptide P88 were tested for their interaction with the human Langerhans islets and compared to the use of USPIO-PEG contrast agent.

[7] = system: beta cells of Langerhans islets; test: Co-localization of contrast agent labeled Langerhans islets with insulin (anti-PEG antibody); assay type: cell-based, human; conditions: fluorescein, insulin Texas red
Method: Co-localization tests were performed where antibodies anti-PEG were added to the Langrehans islets labeled with USPIO-P88 nanoparticles, the Langrehans islets labeled with carboxy silane coated iron oxide nanoparticles coupled to the peptide P88 and to the Langrehans islets labeled with USPIO-PEG. A secondary antibody that recognizes the anti-PEG antibody and coupled to the fluorescein was also used which created a green fluorescence.
Insulin was labeled with primary anti-insulin antibody and a secondary antibody coupled to Texas red which created a red fluorescence.

[8] = molecular target: FXYD2-gamma-a subunit (target of the phage display screening and Kd determination) (human) (UniProt P54710); test: phage clone characterisation after M13 phage display screening; method not stated
[9] = molecular target: FXYD2-gamma-a subunit (target of the phage display screening and Kd determination) (human) (UniProt P54710); test: synthetic peptide; method not stated
[10] = molecular target: FXYD2-gamma-a regulatory subunit expressed by CAPAN-2 cells and human pancreatic beta cells (human) (UniProt P54710); test: immunofluorescence on CAPAN2 cells, ImageJ semi-quantitative analysis, P88 at 5 µM
[11] = molecular target: FXYD2-gamma-a regulatory subunit expressed by CAPAN-2 cells and human pancreatic beta cells (human) (UniProt P54710); test: immunofluorescence on CAPAN2 cells, ImageJ semi-quantitative analysis, P88 at 10 µM

FXYD2-gamma-a subunit, sequence (P54710 whole entry, the tested form may be a part): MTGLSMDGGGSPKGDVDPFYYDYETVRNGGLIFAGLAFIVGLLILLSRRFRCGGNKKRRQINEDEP
T1 sequence (P54710 whole entry): as the sequence (P54710 whole entry, the tested form may be a part) above
FXYD2-gamma-a subunit (target of the phage display screening and Kd determination) (human), sequence (P54710 whole entry): as the sequence (P54710 whole entry, the tested form may be a part) above
FXYD2-gamma-a regulatory subunit expressed by CAPAN-2 cells and human pancreatic beta cells (human), sequence (P54710 whole entry): as the sequence (P54710 whole entry, the tested form may be a part) above

LPLSRHY [P89, LPLSRHY]
specificity of interaction (brown DAB coloration) [1]: less specific compared to P88

LPLSRHYGGGSVPFYSHSNTHHTSM [P88]
Kd (FXYD2-gamma-a subunit): 1890 nM
specificity of interaction (brown DAB coloration) [1]: more localized in the CAPAN2 cells
RRFL higher than the RRFL produced by the anti-FXYD2-gamma-a polyclonal antibody ([2]; CAPAN2 cells, 5 μM): 791%
RRFL higher than the RRFL produced by the anti-FXYD2-gamma-a polyclonal antibody ([2]; CAPAN2 cells, 10 μM): 945%
green fluorescence pattern in CAPAN 2 cells ([2]; CAPAN2 cells, DAPI nuclear stain): correspondent to the blue fluorescent pattern of DAPI
green fluorescence in PANC1 cells ([2]; PANC1 cells): few green fluorescent spots
marking of pancreatic Langerhans islets [3]: high specific marking
co-localization with glucagon (anti-glucagon antibody) [4]: did not co-localize
co-localization with insulin (anti-insulin antibody) [4]: perfect co-localization

NTHHTSM [P90]
dissociation constant (Kd) (FXYD2-gamma-a subunit): could not be determined
specificity of interaction (brown DAB coloration) [1]: less specific compared to P88

USPIO-P88: USPIO nanoparticles coupled to P88, MRI contrast agent (LPLSRHYGGGSVPFYSHSNTHHTSM; also: coupled to USPIO nanoparticles, site not given here)
MRI labeling of CAPAN2 cells (CAPAN2 cells [5]): clear labeling
transverse relaxation rates of labeled CAPAN2 cells compared to USPIO-PEG (CAPAN2 cells [5]): higher
amount of iron captured by the CAPAN2 cells compared to USPIO-PEG (CAPAN2 cells [6]): always higher
MRI labeling of human Langerhans islets compared to USPIO-PEG (human Langerhans islets; also at low concentration and in non-pure islet samples): clear difference
transverse relaxation rates of labeled human Langerhans islets compared to USPIO-PEG (human Langerhans islets): higher
co-localization of labeled Langerhans islets with the red fluorescence of insulin [7]: perfectly co-localized

silane coated iron oxide nanoparticles-P88: carboxy silane coated iron oxide nanoparticles coupled to P88 (LPLSRHYGGGSVPFYSHSNTHHTSM; also: coupled to carboxy silane coated iron oxide nanoparticles, site not given here)
MRI labeling of CAPAN2 cells (CAPAN2 cells [5]): clear labeling
transverse relaxation rates of labeled CAPAN2 cells compared to USPIO-PEG (CAPAN2 cells [5]): higher
amount of iron captured by the CAPAN2 cells compared to USPIO-PEG (CAPAN2 cells [6]): always higher
transverse relaxation rates of labeled human Langerhans islets compared to USPIO-PEG (human Langerhans islets): higher
co-localization of labeled Langerhans islets with the red fluorescence of insulin [7]: perfectly co-localized

B1: selected M13 phage clone carrying 2 peptides (peptide)
peptide 1: LPLSRHY
peptide 2: NTHHTSM
Kd [8]: 9.3 nM

B2: P89 (peptide)
peptide: LPLSRHY
modifications: also: biotinylated in ICC tests, site not given here
Kd [9]: 109000 nM

B3: P88 (peptide)
peptide: LPLSRHYGGGSVPFYSHSNTHHTSM
modifications: also: biotinylated in ICC/IHC/IF tests, site not given here
relative rate of fluorescent labeling (RRFL) in CAPAN2 cells against the anti-FXYD2-gamma-a polyclonal antibody [10]: 791 % higher
relative rate of fluorescent labeling (RRFL) in CAPAN2 cells against the anti-FXYD2-gamma-a polyclonal antibody [11]: 945 % higher
